{"source": "ChEMBL document CHEMBL6121069", "about": "“A Medicinal Chemistry Perspective on Protein Tyrosine Phosphatase Nonreceptor Type 2 in Tumor Immunology” (J Med Chem, 2025)", "key": {"[1]": {"target": "T1, Tyrosine-protein phosphatase non-receptor type 2 (Homo sapiens, UniProt P17706)", "T1 sequence (P17706 whole entry)": "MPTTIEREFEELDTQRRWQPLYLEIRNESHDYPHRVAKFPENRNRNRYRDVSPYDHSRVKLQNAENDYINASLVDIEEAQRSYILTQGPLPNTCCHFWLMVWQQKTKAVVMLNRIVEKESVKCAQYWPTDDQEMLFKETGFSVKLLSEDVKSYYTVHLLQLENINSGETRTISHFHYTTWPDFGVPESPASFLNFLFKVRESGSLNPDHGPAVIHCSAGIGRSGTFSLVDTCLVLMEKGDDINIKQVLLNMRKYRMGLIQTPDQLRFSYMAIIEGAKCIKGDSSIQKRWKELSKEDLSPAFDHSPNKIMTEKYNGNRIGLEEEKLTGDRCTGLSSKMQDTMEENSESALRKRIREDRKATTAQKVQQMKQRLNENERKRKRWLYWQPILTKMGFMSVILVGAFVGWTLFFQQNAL", "description": "Inhibition of PTPN2 (unknown origin)"}, "[2]": {"tested_on": "B16-F10", "experiment": "cells", "conditions": "Mus musculus", "description": "Antiproliferative activity against mouse B16-F10 cells"}}, "data": [{"smiles": "O=C1CN(c2c(O)cc3c(c2F)CNCCC3)S(=O)(=O)N1", "values": [{"measurement": "IC50", "setting": "[1]", "result": 1910, "unit": "nM"}]}, {"smiles": "CC(C)CCn1cc(-c2ccc(O)c(N3CC(=O)NS3(=O)=O)c2F)nn1", "values": [{"measurement": "IC50", "setting": "[1]", "result": "< 1000", "unit": "nM"}]}, {"smiles": "COc1cccc(NCc2cc(O)c(N3CC(=O)NS3(=O)=O)c(F)c2)n1", "values": [{"measurement": "IC50", "setting": "[2]", "result": 8660, "unit": "nM"}]}, {"smiles": "COc1cc(C)nc(NCc2cc(O)c(N3CC(=O)NS3(=O)=O)c(F)c2)c1", "values": [{"measurement": "IC50", "setting": "[2]", "result": 50, "unit": "nM"}]}, {"smiles": "CC(C)N1CCN(CCN2CN(Cc3ccccc3)C(=O)S2)CC1", "values": [{"measurement": "IC50", "setting": "[1]", "result": 7100, "unit": "nM"}]}, {"smiles": "CN(Cc1cc(O)c(N2CC(=O)NS2(=O)=O)c(F)c1)C1CCC(C)(C)CC1", "values": [{"measurement": "IC50", "setting": "[2]", "result": 14900, "unit": "nM"}, {"measurement": "IC50", "setting": "[1]", "result": 50, "unit": "nM"}]}, {"smiles": "CC(C)CCNC(=O)Nc1cc(O)c(N2CC(=O)NS2(=O)=O)c(F)c1", "values": [{"measurement": "IC50", "setting": "[2]", "result": "< 5000", "unit": "nM"}, {"measurement": "IC50", "setting": "[1]", "result": 5, "unit": "nM"}]}, {"smiles": "CCN1CN(Cc2ccc(F)cc2)C(=O)S1", "values": [{"measurement": "IC50", "setting": "[1]", "result": 280, "unit": "nM"}]}, {"smiles": "CC(C)CCn1ccc2cc(O)c(N3CC(=O)NS3(=O)=O)c(F)c2c1=O", "values": [{"measurement": "IC50", "setting": "[1]", "result": "> 1000", "unit": "nM"}]}, {"smiles": "CCN1CCc2cc(O)c(N3CC(=O)NS3(=O)=O)c(F)c2CC1C", "note": "(stereo unspecified)", "values": [{"measurement": "IC50", "setting": "[1]", "result": 212, "unit": "nM"}]}, {"smiles": "CC(C)CCc1ccc2ccc(N3CC(=O)NS3(=O)=O)cc2n1", "values": [{"measurement": "IC50", "setting": "[1]", "result": "> 10000", "unit": "nM"}]}, {"smiles": "CC(C)CCc1ccc2cc(O)c(N3CC(=O)NS3(=O)=O)cc2n1", "values": [{"measurement": "IC50", "setting": "[1]", "result": "< 1000", "unit": "nM"}]}, {"smiles": "O=C1CN(c2c(O)cc(NC(=O)NC3CCCCC3)cc2F)S(=O)(=O)N1", "values": [{"measurement": "IC50", "setting": "[2]", "result": "< 5000", "unit": "nM"}]}, {"smiles": "CC(C)CCOc1ccc2cc(O)c(N3CC(=O)NS3(=O)=O)c(F)c2n1", "values": [{"measurement": "IC50", "setting": "[1]", "result": "< 1000", "unit": "nM"}]}, {"smiles": "Cc1ccc(NCc2cc(O)c(N3CC(=O)NS3(=O)=O)c(F)c2)nn1", "values": [{"measurement": "IC50", "setting": "[2]", "result": 630, "unit": "nM"}]}, {"smiles": "O=C1SN(CCOc2ccc([N+](=O)[O-])cc2)CN1Cc1ccccc1", "values": [{"measurement": "IC50", "setting": "[1]", "result": 1510, "unit": "nM"}]}, {"smiles": "CCN1CN(Cc2ccc(Cl)cc2)C(=O)S1", "values": [{"measurement": "IC50", "setting": "[1]", "result": 330, "unit": "nM"}]}, {"smiles": "CC(C)CCN[C@@H]1CNc2cc(O)c(N3CC(=O)NS3(=O)=O)c(F)c2C1", "values": [{"measurement": "IC50", "setting": "[2]", "result": 1450, "unit": "nM"}]}, {"smiles": "O=C1CN(c2c(O)cc3c(c2F)CCNCC3)S(=O)(=O)N1", "values": [{"measurement": "IC50", "setting": "[2]", "result": 350, "unit": "nM"}]}, {"smiles": "CC(C)CCn1cnc(-c2ccc(O)c(N3CC(=O)NS3(=O)=O)c2F)c1", "values": [{"measurement": "IC50", "setting": "[1]", "result": "< 1000", "unit": "nM"}]}, {"smiles": "O=C1CN(c2c(O)cc(NC(=O)N[C@H](CO)c3ccccc3)cc2F)S(=O)(=O)N1", "note": "(racemic)", "values": [{"measurement": "IC50", "setting": "[2]", "result": "< 5000", "unit": "nM"}, {"measurement": "IC50", "setting": "[1]", "result": 5, "unit": "nM"}]}, {"smiles": "CC(C)CCn1cnc2cc(O)c(N3CC(=O)NS3(=O)=O)c(F)c2c1=O", "values": [{"measurement": "IC50", "setting": "[1]", "result": "> 10000", "unit": "nM"}]}, {"smiles": "COc1ccnc(NCc2cc(O)c(N3CC(=O)NS3(=O)=O)c(F)c2)c1", "values": [{"measurement": "IC50", "setting": "[2]", "result": 140, "unit": "nM"}]}, {"smiles": "CCN1CN(Cc2ccc(I)cc2)C(=O)S1", "values": [{"measurement": "IC50", "setting": "[1]", "result": 370, "unit": "nM"}]}, {"smiles": "CC(C)CCN[C@@H]1C[C@H]2C[C@@H]1c1c2cc(O)c(N2CC(=O)NS2(=O)=O)c1F", "values": [{"measurement": "IC50", "setting": "[2]", "result": 7820, "unit": "nM"}]}, {"smiles": "O=C(O)CN1CCN(CCN2CN(Cc3ccccc3)C(=O)S2)CC1", "values": [{"measurement": "IC50", "setting": "[1]", "result": 8770, "unit": "nM"}]}, {"smiles": "CC(C)CCCc1cc2c(F)c(N3CC(=O)NS3(=O)=O)c(O)cc2n(C)c1=O", "values": [{"measurement": "IC50", "setting": "[1]", "result": "< 1000", "unit": "nM"}]}, {"smiles": "CC(C)CCn1cc(-c2ccc(O)c(N3CC(=O)NS3(=O)=O)c2F)cn1", "values": [{"measurement": "IC50", "setting": "[1]", "result": "< 1000", "unit": "nM"}]}, {"smiles": "CC1(C)CCC(NCc2cc(O)c(N3CC(=O)NS3(=O)=O)c(F)c2)CC1", "values": [{"measurement": "IC50", "setting": "[2]", "result": 81000, "unit": "nM"}]}, {"smiles": "CCN[C@@H]1CCc2cc(O)c(N3CC(=O)NS3(=O)=O)c(F)c2CC1", "values": [{"measurement": "IC50", "setting": "[2]", "result": 54000, "unit": "nM"}]}, {"smiles": "CC(C)CCn1ccc(-c2ccc(O)c(N3CC(=O)NS3(=O)=O)c2F)c1", "values": [{"measurement": "IC50", "setting": "[1]", "result": "< 1000", "unit": "nM"}]}, {"smiles": "Cc1ccnc(NCc2cc(F)c(N3CC(=O)NS3(=O)=O)c3[nH]ncc23)c1", "values": [{"measurement": "IC50", "setting": "[2]", "result": 350, "unit": "nM"}]}, {"smiles": "CCN1CN(Cc2ccc(Br)cc2)C(=O)S1", "values": [{"measurement": "IC50", "setting": "[1]", "result": 520, "unit": "nM"}]}, {"smiles": "O=C1CN(c2c(O)cc3c(c2F)C[C@H](NCCC2CCCC2)CC3)S(=O)(=O)N1", "values": [{"measurement": "IC50", "setting": "[2]", "result": "< 50", "unit": "nM"}]}, {"smiles": "CC1Cc2c(cc(O)c(N3CC(=O)NS3(=O)=O)c2F)CCN1", "note": "(stereo unspecified)", "values": [{"measurement": "IC50", "setting": "[2]", "result": 270, "unit": "nM"}]}, {"smiles": "CC1(C)CCC(NCc2ccc(O)c(N3CC(=O)NS3(=O)=O)c2F)CC1", "values": [{"measurement": "IC50", "setting": "[1]", "result": 10000, "unit": "nM"}]}, {"smiles": "CC(C)CCc1ccc2cc(O)c(N3CC(=O)NS3(=O)=O)c(F)c2n1", "values": [{"measurement": "IC50", "setting": "[1]", "result": "< 1000", "unit": "nM"}]}, {"smiles": "CC(C)CCn1ccc(-c2ccc(O)c(N3CC(=O)NS3(=O)=O)c2F)n1", "values": [{"measurement": "IC50", "setting": "[1]", "result": "< 1000", "unit": "nM"}]}, {"smiles": "O=C1CN(c2c(O)cc3c(c2F)C[C@H](NCCC2CCC2)CC3)S(=O)(=O)N1", "values": [{"measurement": "IC50", "setting": "[2]", "result": "< 1000", "unit": "nM"}]}, {"smiles": "O=C1CN(c2c(O)cc3c(c2F)C[C@H](NCCC2CC2)CC3)S(=O)(=O)N1", "values": [{"measurement": "IC50", "setting": "[2]", "result": 220, "unit": "nM"}]}, {"smiles": "COc1cc(C)nc(NCc2cc(F)c(N3CC(=O)NS3(=O)=O)c3[nH]ncc23)c1", "values": [{"measurement": "IC50", "setting": "[2]", "result": 20, "unit": "nM"}]}, {"smiles": "O=C1SN(CCN2CCN(Cc3ccc4c(c3)OCO4)CC2)CN1Cc1ccccc1", "values": [{"measurement": "IC50", "setting": "[1]", "result": 5290, "unit": "nM"}]}, {"smiles": "COc1ccc2cc(O)c(N3CC(=O)NS3(=O)=O)c(F)c2n1", "values": [{"measurement": "IC50", "setting": "[1]", "result": "< 1000", "unit": "nM"}]}]}
